Source: ChEMBL document CHEMBL1149576, “Convergent synthesis and in vivo inhibitory effect on fat accumulation of (-)-ternatin, a highly N-methylated cyclic peptide” (2007)
The source made the active and inactive calls. The calls are words filed in the database; no cut-off is given here.

Test system: 3T3-L1
Experiment: Inhibition of fat accumulation in mouse 3T3L1 adipocytes
Assay type: functional, cell-based

Question: For `CC[C@H](C)[C@H]1NC(=O)[C@@H]([C@H](O)C(C)C)NC(=O)[C@@H](C)N(C)C(=O)[C@H](C)N(C)C(=O)[C@H](CC(C)C)NC(=O)[C@H](CC(C)C)N(C)C(=O)[C@H](C)N(C)C1=O`, which Activity is on record?
Answer: Active
